# ChEMBL document CHEMBL3885861, “Open TG-GATES”
# Organism: Rattus norvegicus
# Assay: Open TG-GATES - Regimen: Single
# Type: toxicity, organism-based, Sprague-Dawley
# Parameters: regimen Single, gender Male, age 6 weeks
# Settings: in vivo, po, 1000 mg/kg, route gavage, dose level High; for APTT / Bas / Eos / Fbg / Hb / Ht / Lym / MCH / MCHC / MCV / Mono / Neu / PT / Plat / RBC / Ret / WBC: tissue Blood; for KIDNEY_L / KIDNEY_R / KIDNEY_TOTAL: tissue Kidney; for LIVER: tissue Liver; for A/G / ALP / ALT / AST / BUN / CRE / Ca / Cl / DBIL / GLC / IP / K / LDH / Na / PL / RALB / TBIL / TC / TG / TP / gamma-GTP: tissue Plasma
compound,measurement,setting,value
CC(C)(S)[C@@H](N)C(=O)O [PENICILLAMINE],TERMINAL_BW,3 h,206.7 g
same,APTT,3 h,16.4 s
same,Bas,3 h,0%
same,Eos,3 h,1%
same,Fbg,3 h,281.4 mg/dL
same,Hb,3 h,13.2 g/dL
same,Ht,3 h,40.7%
same,Lym,3 h,77%
same,MCH,3 h,20.5 pg
same,MCHC,3 h,32.3%
same,MCV,3 h,63.4 fL
same,Mono,3 h,3.2%
same,Neu,3 h,18.4%
same,PT,3 h,15.6 s
same,Plat,3 h,128.4 x10_4/uL
same,RBC,3 h,642.8 x10_4/ul
same,Ret,3 h,9.2%
same,WBC,3 h,83.2 x10_2/uL
same,KIDNEY_L,3 h,0.9 g
same,KIDNEY_R,3 h,0.9 g
same,KIDNEY_TOTAL,3 h,1.8 g
same,LIVER,3 h,8.6 g
same,A/G,3 h,0.9
same,ALP,3 h,756.4 IU/L
same,ALT,3 h,41.8 IU/L
same,AST,3 h,75.6 IU/L
same,BUN,3 h,9 mg/dL
same,CRE,3 h,0.2 mg/dL
same,Ca,3 h,10.7 mg/dL
same,Cl,3 h,104.6 meq/L
same,DBIL,3 h,0.01 mg/dL
same,GLC,3 h,187 mg/dL
same,IP,3 h,8.3 mg/dL
same,K,3 h,4.3 meq/L
same,LDH,3 h,74 IU/L
same,Na,3 h,141.4 meq/L
same,PL,3 h,141 mg/dL
same,RALB,3 h,2.5 g/dL
same,TBIL,3 h,0.032 mg/dL
same,TC,3 h,78 mg/dL
same,TG,3 h,67.2 mg/dL
same,TP,3 h,5.1 g/dL
same,gamma-GTP,3 h,1.2 IU/L
same,TERMINAL_BW,6 h,203.8 g
same,APTT,6 h,16.5 s
same,Bas,6 h,0%
same,Eos,6 h,0.6%
same,Fbg,6 h,314 mg/dL
same,Hb,6 h,13.2 g/dL
same,Ht,6 h,41%
same,Lym,6 h,71.8%
same,MCH,6 h,20.8 pg
same,MCHC,6 h,32.1%
same,MCV,6 h,64.7 fL
same,Mono,6 h,4.2%
same,Neu,6 h,22.2%
same,PT,6 h,14.8 s
same,Plat,6 h,126.9 x10_4/uL
same,RBC,6 h,635.2 x10_4/ul
same,Ret,6 h,9.5%
same,WBC,6 h,86.9 x10_2/uL
same,KIDNEY_L,6 h,0.9 g
same,KIDNEY_R,6 h,0.9 g
same,KIDNEY_TOTAL,6 h,1.8 g
same,LIVER,6 h,8 g
same,A/G,6 h,1
same,ALP,6 h,741.6 IU/L
same,ALT,6 h,35.8 IU/L
same,AST,6 h,70.8 IU/L
same,BUN,6 h,8 mg/dL
same,CRE,6 h,0.2 mg/dL
same,Ca,6 h,10.6 mg/dL
same,Cl,6 h,105.4 meq/L
same,DBIL,6 h,0.004 mg/dL
same,GLC,6 h,173.6 mg/dL
same,IP,6 h,9.3 mg/dL
same,K,6 h,4.2 meq/L
same,LDH,6 h,80.8 IU/L
same,Na,6 h,141.4 meq/L
same,PL,6 h,134.6 mg/dL
same,RALB,6 h,2.5 g/dL
same,TBIL,6 h,0.028 mg/dL
same,TC,6 h,79.8 mg/dL
same,TG,6 h,31.4 mg/dL
same,TP,6 h,5.2 g/dL
same,gamma-GTP,6 h,1 IU/L
same,TERMINAL_BW,9 h,203.4 g
same,APTT,9 h,16.5 s
same,Bas,9 h,0%
same,Eos,9 h,1%
same,Fbg,9 h,294.2 mg/dL
same,Hb,9 h,13 g/dL
same,Ht,9 h,40.6%
same,Lym,9 h,73.6%
same,MCH,9 h,20.2 pg
same,MCHC,9 h,32.2%
same,MCV,9 h,62.9 fL
same,Mono,9 h,3.2%
same,Neu,9 h,21.6%
same,PT,9 h,15.4 s
same,Plat,9 h,116 x10_4/uL
same,RBC,9 h,645 x10_4/ul
same,Ret,9 h,9%
same,WBC,9 h,82.2 x10_2/uL
same,KIDNEY_L,9 h,1 g
same,KIDNEY_R,9 h,0.9 g
same,KIDNEY_TOTAL,9 h,1.9 g
same,LIVER,9 h,7.6 g
same,A/G,9 h,1
same,ALP,9 h,664.8 IU/L
same,ALT,9 h,31.4 IU/L
same,AST,9 h,65.4 IU/L
same,BUN,9 h,7.8 mg/dL
same,CRE,9 h,0.2 mg/dL
same,Ca,9 h,10.5 mg/dL
same,Cl,9 h,107 meq/L
same,DBIL,9 h,0.01 mg/dL
same,GLC,9 h,177 mg/dL
same,IP,9 h,10.2 mg/dL
same,K,9 h,4.3 meq/L
same,LDH,9 h,67.4 IU/L
same,Na,9 h,142.6 meq/L
same,PL,9 h,127 mg/dL
same,RALB,9 h,2.5 g/dL
same,TBIL,9 h,0.036 mg/dL
same,TC,9 h,73.2 mg/dL
same,TG,9 h,21.4 mg/dL
same,TP,9 h,5.1 g/dL
same,gamma-GTP,9 h,0.8 IU/L
same,TERMINAL_BW,24 h,215.2 g
same,APTT,24 h,16.2 s
same,Bas,24 h,0%
same,Eos,24 h,1.2%
same,Fbg,24 h,291 mg/dL
same,Hb,24 h,13.4 g/dL
same,Ht,24 h,41.2%
same,Lym,24 h,75.4%
same,MCH,24 h,20.8 pg
same,MCHC,24 h,32.4%
same,MCV,24 h,64.2 fL
same,Mono,24 h,3.2%
same,Neu,24 h,19.8%
same,PT,24 h,14.2 s
same,Plat,24 h,116.1 x10_4/uL
same,RBC,24 h,642.2 x10_4/ul
same,Ret,24 h,7.1%
same,WBC,24 h,85.6 x10_2/uL
same,KIDNEY_L,24 h,0.9 g
same,KIDNEY_R,24 h,0.9 g
same,KIDNEY_TOTAL,24 h,1.9 g
same,LIVER,24 h,9.8 g
same,A/G,24 h,0.9
same,ALP,24 h,1271.2 IU/L
same,ALT,24 h,47.8 IU/L
same,AST,24 h,68 IU/L
same,BUN,24 h,14.6 mg/dL
same,CRE,24 h,0.2 mg/dL
same,Ca,24 h,11 mg/dL
same,Cl,24 h,105.2 meq/L
same,DBIL,24 h,0.012 mg/dL
same,GLC,24 h,176 mg/dL
same,IP,24 h,9 mg/dL
same,K,24 h,4.1 meq/L
same,LDH,24 h,86.8 IU/L
same,Na,24 h,143.8 meq/L
same,PL,24 h,155.6 mg/dL
same,RALB,24 h,2.6 g/dL
same,TBIL,24 h,0.028 mg/dL
same,TC,24 h,85 mg/dL
same,TG,24 h,85.2 mg/dL
same,TP,24 h,5.4 g/dL
same,gamma-GTP,24 h,0.8 IU/L
